Measured values: publication PMC10987480, “Biological and mutational analyses of CXCR4–antagonist interactions and design of new antagonistic analogs” (Bioscience Reports, 2023)
Positions of bridges follow the written chain, without caps; N, C: chain ends. Non-standard residues stand in square brackets, D forms with d. Residues, ends and D or L forms follow the SMILES beside them. Chains are numbered I, II in the order given. 2Nal = N[C@@H](Cc1ccc2ccccc2c1)C(=O)O; Lys(iPr) = CC(C)NCCCC[C@H](N)C(=O)O

How the values were obtained:
[1] = target: T1, CXCR4 R30A (Homo sapiens, UniProt P61073, R30A); experiment: Competitive binding to CXCR4 mutant R30A (12G5, CHO cells); set-up: key to the marks not given beside the values; details: TM1, class of reduction vs wild-type CXCR4, 12G5 competition, averages of at least three independent experiments
T1 construct: expressed in transfected cells
Description: (§1) Plasmid pcDNA3-CXCR4 and mutated pcDNA3-CXCR4 were extracted and transfected into CHO cells using Lipofectamine 2000 according to the manufacturer’s guidelines. The selective medium containing G418 at a concentration of 1.2 mg/ml was applied to isolate stably transfected cells. CHO cells expressing wild-type CXCR4 and mutant CXCR4 were obtained using fluorescence-activated cell sorting (FACS).
(§2) All of the CXCR4 mutants were prepared using PCR technology. Briefly, pairs of asymmetrical primers containing the desired amino acid mutations (Supplementary Tables S1 and S2), each complementary to opposite strands of the pcDNA3–CXCR4, were designed for amplification by Q5® High-Fidelity DNA polymerase and the generation of mutated constructs. The methylated pcDNA3–CXCR4 templates were digested by DpnI. The mutated pcDNA3–CXCR4 was transformed into competent E. coli TOP10 for long-term storage and amplification.
(§3) The procedure for the CXCR4 competitive binding experiments was published previously. Briefly, CXCR4 antibody 12G5 (250 ng/ml) was incubated with 5 × 10^5 cells and varying concentrations of unlabeled compounds in a final volume of 100 μl of assay buffer (PBS with 0.5% BSA and 0.05% NaN3) in 96-well plates for 40 min on ice, after being washed with assay buffer once. The cells were incubated with FITC-conjugated second antibody IgG for 30 min on ice, then washed with assay buffer three times. The fluorescence intensity was measured for excitation at 485 nm and emission at 535 nm using multimode plate reader (PerkinElmer). The IC50 values were calculated using graphpad Prism 7. Experiments were performed at least three times.

[2] = target: T2, CXCR4 Y45A (Homo sapiens, UniProt P61073, Y45A); experiment: Competitive binding to CXCR4 mutant Y45A (12G5, CHO cells); details: TM1, class of reduction vs wild-type CXCR4, 12G5 competition, averages of at least three independent experiments
T2 construct: expressed in transfected cells
Description: as §1, §2, §3

[3] = target: T3, CXCR4 V112A (Homo sapiens, UniProt P61073, V112A); experiment: Competitive binding to CXCR4 mutant V112A (12G5, CHO cells); details: TM3, class of reduction vs wild-type CXCR4, 12G5 competition, averages of at least three independent experiments
T3 construct: expressed in transfected cells
Description: as §1, §2, §3

[4] = target: T4, CXCR4 H113A (Homo sapiens, UniProt P61073, H113A); experiment: Competitive binding to CXCR4 mutant H113A (12G5, CHO cells); details: TM3, class of reduction vs wild-type CXCR4, 12G5 competition, averages of at least three independent experiments
T4 construct: expressed in transfected cells
Description: as §1, §2, §3

[5] = target: T5, CXCR4 W161A (Homo sapiens, UniProt P61073, W161A); experiment: Competitive binding to CXCR4 mutant W161A (12G5, CHO cells); details: TM4, class of reduction vs wild-type CXCR4, 12G5 competition, averages of at least three independent experiments
T5 construct: expressed in transfected cells
Description: as §1, §2, §3

[6] = target: T6, CXCR4 D193A (Homo sapiens, UniProt P61073, D193A); experiment: Competitive binding to CXCR4 mutant D193A (12G5, CHO cells); details: TM4, class of reduction vs wild-type CXCR4, 12G5 competition, averages of at least three independent experiments
T6 construct: expressed in transfected cells
Description: as §1, §2, §3

[7] = target: T7, CXCR4 W195A (Homo sapiens, UniProt P61073, W195A); experiment: Competitive binding to CXCR4 mutant W195A (12G5, CHO cells); details: TM4, class of reduction vs wild-type CXCR4, 12G5 competition, averages of at least three independent experiments
T7 construct: expressed in transfected cells
Description: as §1, §2, §3

[8] = target: T8, CXCR4 H203A (Homo sapiens, UniProt P61073, H203A); experiment: Competitive binding to CXCR4 mutant H203A (12G5, CHO cells); details: TM5, class of reduction vs wild-type CXCR4, 12G5 competition, averages of at least three independent experiments
T8 construct: expressed in transfected cells
Description: as §1, §2, §3

[9] = target: T9, CXCR4 H281A (Homo sapiens, UniProt P61073, H281A); experiment: Competitive binding to CXCR4 mutant H281A (12G5, CHO cells); details: TM7, class of reduction vs wild-type CXCR4, 12G5 competition, averages of at least three independent experiments
T9 construct: expressed in transfected cells
Description: as §1, §2, §3

[10] = target: T10, CXCR4 I284A (Homo sapiens, UniProt P61073, I284A); experiment: Competitive binding to CXCR4 mutant I284A (12G5, CHO cells); details: TM7, class of reduction vs wild-type CXCR4, 12G5 competition, averages of at least three independent experiments
T10 construct: expressed in transfected cells
Description: as §1, §2, §3

[11] = target: T11, CXCR4 (Homo sapiens, UniProt P61073); experiment: SDF-1α-induced cell migration assay in SupT1 cells (transwell); format: cell-based; set-up: host or cells: SupT1 cells; details: 2 nM SDF-1α, 30 min pre-incubation, 3 h migration
Description: Figure 2 The inhibitory effect of the antagonists on SDF-1α-induced cell chemotaxis and calcium mobilization in SupT1 cells The antagonists and concentrations used were labeled in each lane. (A) The inhibition of cell migration by the noted antagonists. SupT1 cells pre-treated with or without CXCR4 antagonists were seeded in the upper well and cell migrated by 2 nM SDF-1α. Migrated cells without SDF-1α were used as a negative (0%) and migrated cell induced by SDF-1α as a positive control (100%). […] SupT1 cells were treated with or without CXCR4 antagonists and activated by 50 nM SDF-1α. To directly compare the inhibitory effect of the antagonists on calcium mobilization, the vehicle background and baseline were removed using GraphPad and Origin. The data were averages of at least three independent experiments.
SupT1 cells (2 × 10^6 cells per well in 75 μl) were collected and washed using assay buffer (RPMI 1640 supplemented with 0.5% BSA) and incubated with various concentrations of tested compounds for 30 min in the upper well of the transwell-96 well plates with 5.0 µm pore polycarbonate membrane insert (Corning, U.S.A.). Then, 200 μl assay buffer containing 2 nM SDF-1α was added to the lower well and cells were allowed to migrate for 3 h. Migrated cells were measured using celltiter-96 reagent.

[12] = target: T11, CXCR4; experiment: Competitive CXCR4 binding assay (12G5 antibody probe), wild-type CXCR4 transfected CHO cells; set-up: expressed in transfected cells; Competitive receptor binding activity, wild-type CXCR4 (WT): key to the marks not given beside the values; details: for Competitive receptor binding activity, wild-type CXCR4 (WT): class relative to wild-type, 12G5 competition, stably transfected CHO cells, averages of at least three independent experiments
Description: The CXCR4-specific antibody, 12G5 was used as a probe for the competitive CXCR4 binding assay to evaluate the binding activity of CXCR4 antagonists.
Figure 1 Competitive CXCR4 binding curves of eleven CXCR4 antagonists The CXCR4 transfected CHO cells were incubated with different concentrations of antagonists and 250 ng/ml 12G5 antibody. The CXCR4-binding 12G5 antibody was recognized by FITC-conjugated anti-IgG second antibody. The cells treated with only second antibody were used as a negative control (0%) while cells treated with both 12G5 antibody and second antibody were used as a positive control (100%). Cells treated with CXCR4 antagonists were calculated in percentage relative to the positive and negative controls. The data were averages of at least three independent experiments and shown as mean ± standard error of the mean (S.E.M.).
as §3

T11 sequence (P61073 whole entry): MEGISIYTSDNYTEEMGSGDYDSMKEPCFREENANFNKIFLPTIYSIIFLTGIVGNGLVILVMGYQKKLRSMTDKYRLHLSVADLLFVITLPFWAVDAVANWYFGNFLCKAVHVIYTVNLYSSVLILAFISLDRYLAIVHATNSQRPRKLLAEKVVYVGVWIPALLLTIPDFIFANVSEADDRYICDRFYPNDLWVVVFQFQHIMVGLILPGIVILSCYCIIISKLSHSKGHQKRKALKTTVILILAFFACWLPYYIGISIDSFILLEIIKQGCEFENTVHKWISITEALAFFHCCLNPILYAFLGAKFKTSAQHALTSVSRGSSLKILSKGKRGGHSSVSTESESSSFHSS
T4 sequence (P61073 whole entry H113A): as the sequence (P61073 whole entry) above, with H113A counted along it
T9 sequence (P61073 whole entry H281A): as the sequence (P61073 whole entry) above, with H281A counted along it
T6 sequence (P61073 whole entry D193A): as the sequence (P61073 whole entry) above, with D193A counted along it
T1 sequence (P61073 whole entry R30A): as the sequence (P61073 whole entry) above, with R30A counted along it
T5 sequence (P61073 whole entry W161A): as the sequence (P61073 whole entry) above, with W161A counted along it
T8 sequence (P61073 whole entry H203A): as the sequence (P61073 whole entry) above, with H203A counted along it
T7 sequence (P61073 whole entry W195A): as the sequence (P61073 whole entry) above, with W195A counted along it
T2 sequence (P61073 whole entry Y45A): as the sequence (P61073 whole entry) above, with Y45A counted along it
T10 sequence (P61073 whole entry I284A): as the sequence (P61073 whole entry) above, with I284A counted along it
T3 sequence (P61073 whole entry V112A): as the sequence (P61073 whole entry) above, with V112A counted along it

Row | Compound | Competitive receptor binding activity, CXCR4 R30A [1] | Competitive receptor binding activity, CXCR4 Y45A [2] | Competitive receptor binding activity, CXCR4 V112A [3] | Competitive receptor binding activity, CXCR4 H113A [4] | Competitive receptor binding activity, CXCR4 W161A [5] | Competitive receptor binding activity, CXCR4 D193A [6] | Competitive receptor binding activity, CXCR4 W195A [7] | Competitive receptor binding activity, CXCR4 H203A [8] | Competitive receptor binding activity, CXCR4 H281A [9] | Competitive receptor binding activity, CXCR4 I284A [10] | inhibition at 4 µM ([11]; SUP-T1, at 4 μM) | Competitive receptor binding activity, wild-type CXCR4 (WT) [12] | inhibition at 0.4 µM ([11]; SUP-T1, at 400 nM) | IC50 ([12]; CXCR4 transfected CHO cells, 250 ng/ml 12G5, 40 min on ice, FITC second antibody, mean ± S.E.M. of at least three independent experiments, SEM, read-out: IC50 (nM), inhibition of 12G5 binding to CXCR4)
1 | CC(C)C[C@@H](N)C(=O)NCC(=O)N[C@H](C)C(=O)N[C@H](CO)C(=O)N[C@H](Cc1c[nH]c2ccccc12)C(=O)N[C@H](Cc1c[nH]cn1)C(=O)N[C@H](CCCNC(=N)N)C(=O)N1CCC[C@@H]1C(=O)N[C@H](CC(=O)O)C(=O)N[C@H](CCCCN)C(=O)NCCCC[C@@H](NC(=O)[C@H]1CCCN1C(=O)[C@@H](CC(C)C)NC(=O)[C@H]1CCCN1C(=O)[C@@H](CCCNC(=N)N)NC(=O)[C@@H](CCCCN)NC(=O)[C@@H](CCC(N)=O)NC(=O)[C@@H](Cc1ccc(O)cc1)NC(=O)CNC(=O)[C@@H](CC(C)C)NC(=O)[C@@H](CS)NC(=O)[C@@H](CS)NC(=O)[C@@H](CCCCN)NC(=O)[C@@H](CC(=O)O)NC(=O)[C@H]1CCCN1C(=O)[C@@H](CCCNC(=N)N)NC(=O)[C@@H](Cc1c[nH]cn1)NC(=O)[C@@H](Cc1c[nH]c2ccccc12)NC(=O)[C@@H](CO)NC(=O)[C@@H](C)NC(=O)CNC(=O)[C@H](N)CC(C)C)C(=O)O [HC4319] (I: H-[dL]G[dA][dS][dW][dH][dR][dP][dD][dK][dC][dC][dL]G[dY][dQ][dK][dR][dP][dL][dP][dK]-OH / II: H-[dL]G[dA][dS][dW][dH][dR][dP][dD][dK]; amide I:22-II:C; N-terminus and C-terminus assumed) | +++ | + (30–60% reduction compared with wild-type CXCR4) | +++ | ++ (10–29% reduction compared with wild-type CXCR4) | +++ | ++ (10–29% reduction compared with wild-type CXCR4) | ++ (10–29% reduction compared with wild-type CXCR4) | +++ | ++ (10–29% reduction compared with wild-type CXCR4) | +++ | 56% | +++ | – | –
2 | CC(C)NCCCC[C@H](NC(=O)[C@H]1CCC(=O)N[C@@H](Cc2ccccc2)C(=O)N[C@@H](Cc2ccc(O)cc2)C(=O)N[C@@H](CCCCNC(C)C)C(=O)N[C@H](CCCNC(=N)N)C(=O)N[C@@H](Cc2ccc3ccccc3c2)C(=O)NCC(=O)N1)C(N)=O [LY2510924] (FY[Lys(iPr)][dR][2Nal]G[dE][Lys(iPr)]-NH2; lactam N-7 (inferred)) | +++ | + (30–60% reduction compared with wild-type CXCR4) | ++ (10–29% reduction compared with wild-type CXCR4) | + (30–60% reduction compared with wild-type CXCR4) | ++ (10–29% reduction compared with wild-type CXCR4) | +++ | ++ (10–29% reduction compared with wild-type CXCR4) | + (30–60% reduction compared with wild-type CXCR4) | ++ (10–29% reduction compared with wild-type CXCR4) | ++ (10–29% reduction compared with wild-type CXCR4) | – | +++ | 76% | 135 ± 63.9 nM
